Assay results published in patent US20050037069A1, “Solid and stable creatine/citric acid composition(s) and compositions carbohydrate(s) or hydrates thereof, method for the production and use thereof” (priority 2002, published 2005).

Assay: Storage stability: creatinine (creatine decomposition product) content after storage
Assay type: physicochemical
Settings: for Creatinine content / Observations: 40° C., 28 days
Procedure: A creatine-citric acid compound (3:1) (KC) as pure substance and mixtures of this compound (3:1) with 1, 5 and 10% by weight addition of a carbohydrate (CH) were stored for 28 days at 60° C. and then the contents of the creatine decomposition product creatinine were determined.

[1] = Addition: 1% by weight carbohydrate (CH)
[2] = Addition: 5% by weight carbohydrate (CH)
[3] = Addition: 10% by weight carbohydrate (CH)

For `CN(CC(=O)O)C(=N)N.CN(CC(=O)O)C(=N)N.CN(CC(=O)O)C(=N)N.O=C(O)CC(O)(CC(=O)O)C(=O)O` [KC without CH, creatine-citric acid compound (3:1)], the Creatinine content [1] was 770 ppm, the Observations [1] was “white” and the Creatinine content [2] was 770 ppm. For the same compound, the Observations [2] was “white”, the Creatinine content [3] was 770 ppm and the Observations [3] was “white”. The “creatinine content, initial data” value (reference substance before storage, limit of detection) was < 67 ppm.
